Source: ChEMBL document CHEMBL1201862, “PubChem BioAssay data set” (2004)
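Five compound concentrations were applied to cells in 96-well plates for 48 hours; endpoints were derived by simple linear interpolation of the resulting dose-response curve. GI50: concentration for 50% inhibition of growth.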 Activity calls are given as the source filed them. Rule as the data show it: active = GI50 up to about 1.1 µM and inactive = higher.

Columns and labels:
Test in all cases: DTP human tumour cell line panel, 48 h
786-0 = test system: 786-0
A498 = test system: A498
A549 = test system: A549
ACHN = test system: ACHN
BT-549 = test system: BT-549
CAKI-1 = test system: CAKI-1
COLO 205 = test system: COLO 205
EKVX = test system: EKVX
HCC 2998 = test system: HCC 2998
HCT-116 = test system: HCT-116
HCT-15 = test system: HCT-15
HOP-62 = test system: HOP-62
HOP-92 = test system: HOP-92
IGROV-1 = test system: IGROV-1
K562 = test system: K562
KM12 = test system: KM12
LOX IMVI = test system: LOX IMVI
M14 = test system: M14
MCF7 = test system: MCF7
MDA-MB-231 = test system: MDA-MB-231
MDA-MB-435 = test system: MDA-MB-435
MDA-N = test system: MDA-N
MOLT-4 = test system: MOLT-4
Malme-3M = test system: Malme-3M
NCI-H226 = test system: NCI-H226
NCI-H23 = test system: NCI-H23
NCI-H460 = test system: NCI-H460
NCI-H522 = test system: NCI-H522
NCI/ADR-RES = test system: NCI/ADR-RES
OVCAR-3 = test system: OVCAR-3
OVCAR-4 = test system: OVCAR-4
OVCAR-5 = test system: OVCAR-5
PC-3 = test system: PC-3
RPMI-8226 = test system: RPMI-8226
RXF 393 = test system: RXF 393
SF-268 = test system: SF-268
SF-295 = test system: SF-295
SF-539 = test system: SF-539
SK-MEL-28 = test system: SK-MEL-28
SK-MEL-2 = test system: SK-MEL-2
SK-MEL-5 = test system: SK-MEL-5
SK-OV-3 = test system: SK-OV-3
SN12C = test system: SN12C
SNB-19 = test system: SNB-19
SNB-75 = test system: SNB-75
SW-620 = test system: SW-620
T47D = test system: T47D
TK-10 = test system: TK-10
U-251 = test system: U-251
UACC-257 = test system: UACC-257
UO-31 = test system: UO-31
CCRF-CEM = test system: CCRF-CEM
DU-145 = test system: DU-145
HL-60 = test system: HL-60
HT-29 = test system: HT-29
Hs-578T = test system: Hs-578T
OVCAR-8 = test system: OVCAR-8
SR = test system: SR
UACC-62 = test system: UACC-62

Measured: GI50

C/C=C\C(CC(=O)OC)CC(=O)N(CCC1CN(S(=O)(=O)C(F)(F)F)c2ccccc21)Cc1ccc(OC)cc1OC (configuration not stated)
> 100 µM: HCT-15
inactive: 786-0 > 100 µM | A498 > 100 µM | A549 77.4 µM | ACHN > 100 µM | BT-549 > 100 µM | CAKI-1 > 100 µM | COLO 205 > 100 µM | EKVX > 100 µM | HCC 2998 > 100 µM | HCT-116 76.2 µM | HOP-62 > 100 µM | HOP-92 > 100 µM | IGROV-1 > 100 µM | K562 96.6 µM | KM12 45.1 µM | LOX IMVI > 100 µM | M14 > 100 µM | MCF7 > 100 µM | MDA-MB-231 > 100 µM | MDA-MB-435 35.7 µM | MDA-N > 100 µM | MOLT-4 > 100 µM | Malme-3M > 100 µM | NCI-H226 > 100 µM | NCI-H23 > 100 µM | NCI-H460 73.1 µM | NCI-H522 57.3 µM | NCI/ADR-RES > 100 µM | OVCAR-3 > 100 µM | OVCAR-4 54.7 µM | OVCAR-5 > 100 µM | PC-3 63 µM | RPMI-8226 61.7 µM | RXF 393 > 100 µM | SF-268 > 100 µM | SF-295 > 100 µM | SF-539 > 100 µM | SK-MEL-28 > 100 µM | SK-MEL-2 > 100 µM | SK-MEL-5 > 100 µM | SK-OV-3 > 100 µM | SN12C > 100 µM | SNB-19 > 100 µM | SNB-75 > 100 µM | SW-620 > 100 µM | T47D > 100 µM | TK-10 > 100 µM | U-251 > 100 µM | UACC-257 > 100 µM | UO-31 > 100 µM

COc1ccc(OC)c(NC2=NCCO2)c1
> 100 µM: HCT-15
active: HOP-92 < 0.01 µM
inactive: 786-0 > 100 µM | A498 > 100 µM | A549 > 100 µM | ACHN > 100 µM | CAKI-1 15 µM | CCRF-CEM > 100 µM | COLO 205 > 100 µM | DU-145 > 100 µM | EKVX > 100 µM | HCC 2998 > 100 µM | HCT-116 > 100 µM | HL-60 83.8 µM | HOP-62 > 100 µM | HT-29 62.2 µM | Hs-578T > 100 µM | IGROV-1 > 100 µM | K562 > 100 µM | KM12 > 100 µM | LOX IMVI > 100 µM | M14 > 100 µM | MCF7 > 100 µM | MDA-MB-231 > 100 µM | MDA-MB-435 89.7 µM | MDA-N 45.4 µM | MOLT-4 > 100 µM | Malme-3M > 100 µM | NCI-H226 > 100 µM | NCI-H23 52.4 µM | NCI-H460 > 100 µM | NCI-H522 > 100 µM | NCI/ADR-RES > 100 µM | OVCAR-3 > 100 µM | OVCAR-4 > 100 µM | OVCAR-5 > 100 µM | OVCAR-8 > 100 µM | PC-3 > 100 µM | RPMI-8226 > 100 µM | RXF 393 > 100 µM | SF-268 > 100 µM | SF-295 > 100 µM | SF-539 > 100 µM | SK-MEL-28 > 100 µM | SK-MEL-2 18 µM | SK-MEL-5 > 100 µM | SN12C > 100 µM | SNB-19 10.6 µM | SNB-75 > 100 µM | SR 66.4 µM | SW-620 13.6 µM | T47D > 100 µM | TK-10 > 100 µM | U-251 > 100 µM | UACC-257 > 100 µM | UACC-62 > 100 µM | UO-31 > 100 µM

CC[C@@]1(O)C(=O)OCc2c1cc1n(c2=O)Cc2c-1nc1ccccc1c2/C=N/c1ccccc1N[C@@H]1c2cc3c(cc2[C@@H](c2cc(OC)c(O)c(OC)c2)[C@H]2C(=O)OC[C@@H]21)OCO3
active: 786-0 0.0142 µM | A549 0.0351 µM | ACHN 0.0106 µM | BT-549 0.269 µM | CAKI-1 0.0204 µM | CCRF-CEM < 0.005 µM | DU-145 0.00767 µM | HCC 2998 0.148 µM | HCT-116 0.0527 µM | HOP-62 0.0103 µM | HOP-92 0.209 µM | LOX IMVI 0.0194 µM | M14 0.0239 µM | MCF7 0.00684 µM | MDA-MB-231 1.05 µM | Malme-3M 0.329 µM | NCI-H226 0.0362 µM | OVCAR-4 0.427 µM | PC-3 0.164 µM | RPMI-8226 0.175 µM | SF-268 0.0161 µM | SK-MEL-5 0.0532 µM | SNB-75 0.028 µM | SR < 0.005 µM | SW-620 0.157 µM | T47D 0.014 µM | U-251 0.188 µM | UACC-257 0.278 µM | UACC-62 0.014 µM

CC1=C(SCc2ccccc2)C(=O)c2ccccc2C1=O
18.5 µM: HCT-15
inactive: 786-0 13.2 µM | A498 24 µM | ACHN 13.6 µM | BT-549 16.7 µM | CAKI-1 13.4 µM | CCRF-CEM 2.9 µM | COLO 205 19.7 µM | DU-145 19.8 µM | EKVX 19.1 µM | HCC 2998 26.7 µM | HCT-116 4.23 µM | HL-60 3.73 µM | HOP-62 17.3 µM | HOP-92 4.72 µM | HT-29 30.3 µM | IGROV-1 12 µM | K562 3.05 µM | KM12 18.5 µM | LOX IMVI 17.6 µM | MCF7 14.2 µM | MDA-MB-231 17.1 µM | MDA-MB-435 14.6 µM | MOLT-4 1.68 µM | Malme-3M 15.5 µM | NCI-H23 17.9 µM | NCI-H460 21.8 µM | NCI/ADR-RES 21.7 µM | OVCAR-3 10.5 µM | OVCAR-4 13.9 µM | OVCAR-5 25.5 µM | OVCAR-8 13.4 µM | PC-3 17.6 µM | RPMI-8226 2.42 µM | RXF 393 16.6 µM | SF-268 16.7 µM | SF-295 18.1 µM | SF-539 14.8 µM | SK-MEL-28 19.2 µM | SK-MEL-2 17.8 µM | SK-MEL-5 14.4 µM | SK-OV-3 20.2 µM | SN12C 17.8 µM | SNB-75 13.4 µM | SW-620 19.9 µM | T47D 3.18 µM | TK-10 21 µM | U-251 16.8 µM | UACC-257 16.1 µM | UACC-62 15.8 µM
